Results from patent US20120202822A1, “COMBINATION” (priority 2009, published 2012).

Assays:
Assay in all cases: Fixed Ratio Drug Combination Assay, cell proliferation (CellTiter Glo)
Assay type in all cases: cell-based, human
HT29 = details: for Ymin/T0: 72 hours; for IC50: Homo sapiens, HT-29, 72 hours, read-out: gIC50
Method: (§1) Combination drug tests with Compounds A and B were conducted using a panel of cell lines from human colon cancers (n=25) (Table 1). Cell lines were purchased commercially [from ATCC (Manassas, Va., USA) or DSMZ (Braunschweig, Germany)] and grown in RPMI-1640 supplemented with 2 mM glutamine, 1 mM sodium pyruvate and 10% fetal bovine serum and maintained at 37° C. and 5% CO2 in a humid incubator.
(§2) The dilution design of the Fixed Ratio Drug Combination Assay can be seen in FIG. 1. First, the test compounds were prepared as 10 mM stocks in 100% dimethyl sulfoxide (DMSO). Further dilutions of the compounds were made with DMSO. The first test compound (designated as Compound A) is diluted horizontally in a 96 well microtiter plate in rows B-E using a 3-fold dilution series for 10 dilution points. A second test compound (designated as Compound B) is diluted horizontally in a separate 96 well microtiter plate in rows D-G using a 3-fold dilution series for 10 dilution points. The two compounds are combined using equal volumes from each drug plate into cell culture media. […] Compound A is individually titrated in rows B and C, while only Compound B is dosed in rows F and G of the plate. An additional 1:10 dilution of the drugs is performed in cell culture media prior to addition to the cells. Drug addition to the cells results in a further 1:2 dilution of drugs. The total dilution of the drug plate to the cells is […]. The final dosing concentration range for Compound B was 0.1-1000.0 nM and was 0.5-10000.0 nM for Compound A. The positive control consists of culture media with DMSO at 0.1% and cells and no drug. The negative control consists of culture media with DMSO at 0.1%. solution.
(§3) Assays were performed in 96 well microtiter plates with appropriate seeding densities estimated from previous studies of each cell line. Following dosing, the cell lines are incubated at 37° C., 5% CO2 in humid air for 72 hours. Cell proliferation was measured using the CellTiter Glo (Promega Corporation, Madison, Wis., USA) reagent according to the manufacturer's protocol. The plates are treated with CellTiter Glo solution and are analyzed for RLU (relative light units) using a Molecular Devices SpectraMax M5 (Sunnyvale, Calif., USA) plate reader.
(§4) Results are expressed as a percentage of the number of cells present at the time of compound addition value (T0) and plotted against compound(s) concentration. The percent intensity values were used in model 205 of the IDBS XLfit plug-in for Microsoft Excel to calculate gIC50 values using a 4 parameter logistical fit. Background correction is made by subtraction of values from wells containing no cells. The midpoint of the growth window (the gIC50) falls half way between the number of cells at the time of compound addition and the growth of control cells treated with DMSO at 72 hrs. The number of cells at time zero is divided from the intensity value at the bottom of the response curve (Ymin) to generate a measure for cell death (Ymin/T0). A value below 1 for Ymin/T0 indicates stronger potency with the treatment when compared to higher values. For duplicate assays, all response metrics are averaged for presentation.
(§5) Three independent metrics were used to analyze the combinatorial effects on growth inhibition of Compound B and Compound A. • 1. Excess over Highest Single Agent (EOHSA)—One standard criterion for measuring drug combinatorial effects is analyzing the effects on cell growth inhibition in absolute terms. In this case, the combination of drugs is compared to the more responsive of the two individual treatments (single agent). For each combination experiment, the percent effect relative to the highest single agent for each dose along the curve is generated. This measure of “Excess of Highest Single Agent (EOHSA)” is one of the criteria used for evaluating synergy of drug combinations. […]

SW403 = details: for Ymin/T0: 72 hours; for IC50: Homo sapiens, SW-403, 72 hours, read-out: gIC50
Method: as §1, §2, §3, §4, §5

T84 = details: 72 hours; for IC50: Homo sapiens, read-out: gIC50
Method: as §1, §2, §3, §4, §5

| IC50 (HT29) [nM] | IC50 (SW403) [nM] | SMILES | Ymin/T0 (HT29) | Ymin/T0 (SW403) | Ymin/T0 (T84) | IC50 (T84) [nM] |
| --- | --- | --- | --- | --- | --- | --- |
| 17.2 | > 10000 | CC(C)(C)c1nc(-c2cccc(NS(=O)(=O)c3c(F)cccc3F)c2F)c(-c2ccnc(N)n2)s1 [Compound A, N-{3-[5-(2-amino-4-pyrimidinyl)-2-(1,1-dimethylethyl)-1,3-thiazol-4-yl]-2-fluorophenyl}-2,6-difluorobenzenesulfonamide] | 4.0 | 2.7 | 2.0 | > 10000 |
| 7.4 | 1.5 | COc1ncc(-c2ccc3nccc(-c4ccnnc4)c3c2)cc1NS(=O)(=O)c1ccc(F)cc1F [Compound B, 2,4-difluoro-N-{2-(methyloxy)-5-[4-(4-pyridazinyl)-6-quinolinyl]-3-pyridinyl}benzenesulfonamide] | 2.0 | 0.5 | 0.7 | 6 |
